The results in this text go back to ChEMBL document CHEMBL1137267, “Novel aminobenzimidazoles as selective MCH-R1 antagonists for the treatment of metabolic diseases” (Bioorg Med Chem Lett, 2006).

The target of data set [1] is T1, Melanin-concentrating hormone receptor 1 (Homo sapiens, UniProt Q99705). Put plainly: Binding activity against human MCH-R1.
For data set [2], the target named is Melanin-concentrating hormone receptor 2 (Homo sapiens) (UniProt Q969V1). Put plainly: Binding activity against human MCH-R2.
The species named for data set [3] is Mus musculus. Put plainly: Inhibition of cumulative food intake by fasted DIO mice at 24 hours. It is filed as functional.
The species named for data set [4] is Mus musculus. The data set can be described thus: Inhibition of cumulative food intake by fasted DIO mice at 6 hours. It counts as functional.
Data set [5] concerns Mus musculus. The data set can be described thus: Inhibition of ex vivo MCH-ADO binding in mice 6 hours after 30mg/kg peroral dose. It is filed as functional. Conditions: po.
Data set [6] is filed under the species Mus musculus. Put plainly: Inhibition of cumulative food intake by fasted DIO mice at 4 hours. It counts as functional.
Data set [7] in a line: AUC in rats following 10 mg/kg peroral dose. It is filed as ADME, organism-based. The arrangement: dose 10 mg/kg, route oral. Conditions: rat, plasma, po.
Data set [8] concerns Mus musculus. Put plainly: Inhibition of ex vivo MCH-ADO binding in mice 24 hours after 30 mg/kg peroral dose. Conditions: route oral. It counts as functional.
The species named for data set [9] is Mus musculus. Put plainly: Inhibition of cumulative food intake by fasted DIO mice at 2 hours. It is filed as functional.
Data set [10] deals with T1, Melanin-concentrating hormone receptor 1. Put plainly: Inhibition of MCH-mediated calcium influx into CHO cells expressing human MCH-R1by FLIPR assay. It counts as functional, cell-based.

Structures are written as SMILES. Calls of active or inactive are those of the source. No cut-off for these calls is given here.

T1 sequence (Q99705 whole entry): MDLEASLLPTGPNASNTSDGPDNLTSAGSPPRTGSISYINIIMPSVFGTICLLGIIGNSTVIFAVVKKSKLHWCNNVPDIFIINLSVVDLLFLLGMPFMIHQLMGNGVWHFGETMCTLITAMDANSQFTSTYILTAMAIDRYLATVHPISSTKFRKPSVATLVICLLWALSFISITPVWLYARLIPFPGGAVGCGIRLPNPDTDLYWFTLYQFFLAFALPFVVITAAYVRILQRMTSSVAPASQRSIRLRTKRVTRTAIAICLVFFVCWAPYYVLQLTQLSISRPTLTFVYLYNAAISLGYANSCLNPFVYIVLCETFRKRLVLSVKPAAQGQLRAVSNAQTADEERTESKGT
Melanin-concentrating hormone receptor 2 (Homo sapiens), sequence (Q969V1 whole entry): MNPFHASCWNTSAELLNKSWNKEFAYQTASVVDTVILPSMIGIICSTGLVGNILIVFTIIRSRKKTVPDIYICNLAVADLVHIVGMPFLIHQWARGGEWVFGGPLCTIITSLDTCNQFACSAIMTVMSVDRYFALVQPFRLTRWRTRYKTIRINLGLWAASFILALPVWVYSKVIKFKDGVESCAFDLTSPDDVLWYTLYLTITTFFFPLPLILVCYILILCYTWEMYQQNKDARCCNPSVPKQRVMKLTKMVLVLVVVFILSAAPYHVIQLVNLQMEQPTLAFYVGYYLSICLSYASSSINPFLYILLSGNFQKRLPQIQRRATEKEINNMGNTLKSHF

By Ki is commonly meant a measure of affinity in units of concentration, obtained from inhibition or displacement. Regarding `CO/N=C/c1cccc([C@]23CC[C@@H](N(CCCN4CCN(C)CC4)c4nc5cc(F)c(F)cc5[nH]4)C[C@H]2C3)c1`, affinity in data set [1] was put at a Ki of 28.2 nM. For the same molecule, the inhibition result in [2] is “inactive”.

In the case of `CN1CCN(CCCN(c2nc3cc(F)c(F)cc3[nH]2)[C@@H]2CCC3(c4cccc(CN5CCCC5)c4)C[C@@H]3C2)CC1` (single isomer, unassigned), the affinity in data set [1] corresponds to a Ki of 25.7 nM. For the same molecule, in data set [2], the inhibition entry was “inactive”.

Turning to `CN1CCN(CCCN(c2nc3cc(F)c(F)cc3[nH]2)[C@@H]2CCC3(c4cccc(C=O)c4)C[C@@H]3C2)CC1` (single isomer, unassigned), the Ki in data set [1] was found to be 16.3 nM. Besides, the inhibition result in [2] was “inactive”.

Usually Inhibition stands for the relative decrease from the control value, in per cent. A low value points to little suppression. The term inhibition in vivo denotes the drop in the measured response relative to a control, in per cent. Higher therefore signals a strong effect. The AUC is concentration integrated over time. The low end stands for less exposure, the high end for more exposure. For `CN1CCN(CCCN(c2nc3cc(Cl)c(Cl)cc3[nH]2)[C@@H]2CCC3(c4cccc(C#N)c4)C[C@@H]3C2)CC1` (single isomer, unassigned), the Inhibition in data set [3] is 9%; in data set [4], 18%; in data set [6], 19%; in data set [9] it was 12%. Also, the inhibition in vivo at 30 mg/kg came out at 81% in data set [5] and 97% in [8]. For the same molecule, the inhibition result in [2] is “inactive”. Further, the AUC in data set [7] stood at 965 ng·h/mL.

In turn, `CN1CCN(CCCN(c2nc3cc(Cl)c(Cl)cc3[nH]2)[C@@H]2CCC3(c4cccc(CN5CCOCC5)c4)C[C@@H]3C2)CC1` (single isomer, unassigned) yielded an inhibitory constant (Ki) in data set [1] of 14.2 nM. In addition, in data set [2], the inhibition result was “inactive”.

As for `CS(=O)(=O)N1CCC(CN(c2nc3cc(F)c(F)cc3[nH]2)[C@@H]2CCC3(c4cccc(C#N)c4)C[C@@H]3C2)CC1` (single isomer, unassigned), the affinity in data set [1], expressed as Ki, was 27 nM. Also, the inhibition in vivo at 30 mg/kg in data set [5] and in [8] was 0% in each case. In addition, the inhibition result in data set [2] is “inactive”. The molecule further yielded an AUC in data set [7] of 350 ng·h/mL.

Take `CN1CCN(CCCN(c2nc3cc(Cl)c(Cl)cc3[nH]2)[C@@H]2CC[C@]3(c4ccc(C#N)cc4)C[C@H]23)CC1`: the Ki in data set [1] amounted to 11.4 nM. Besides, the inhibition entry in [2] was “inactive”.

Regarding `CS(=O)(=O)N1CCC(CN(c2nc3cc(Cl)c(Cl)cc3[nH]2)[C@@H]2CCC3(c4cccc(C#N)c4)C[C@@H]3C2)CC1` (single isomer, unassigned), affinity in data set [1] was put at a Ki of 1.5 nM. Also, the inhibition in vivo at 30 mg/kg was 12% in [5] and 0% in data set [8]. In addition, the inhibition entry in data set [2] is “inactive”.

`CN1CCN(CCCN(c2nc3cc(Cl)c(Cl)cc3[nH]2)[C@@H]2CCC3(c4cccc(C=O)c4)C[C@@H]3C2)CC1` (single isomer, unassigned) gave a Ki in [1] of 13.7 nM. The inhibition result in [2] is “inactive”.

Molecule `CC(C)(C)OC(=O)N1CCC(CN(c2nc3cc(Cl)c(Cl)cc3[nH]2)[C@@H]2CCC3(c4cccc(C#N)c4)C[C@@H]3C2)CC1` (single isomer, unassigned) came in with a Ki in data set [1] of 1140 nM. Further, the inhibition entry in [2] is “inactive”.

Consider `CN1CCN(CCCN(c2nc3cc(F)c(F)cc3[nH]2)[C@@H]2CCC3(c4cccc(CN5CCN(C)CC5)c4)C[C@@H]3C2)CC1` (single isomer, unassigned), for which, in [2], the inhibition entry is “inactive”.

In the case of `CN1CCN(CCCN(c2nc3cc(F)c(F)cc3[nH]2)[C@@H]2CCC3(c4cccc(CN5CCOCC5)c4)C[C@@H]3C2)CC1` (single isomer, unassigned), the Ki in [1] came out at 21.3 nM. The inhibition entry in data set [2] is “inactive”.

For `CS(=O)(=O)N1CCC(CN(c2nc3cc(F)c(Cl)cc3[nH]2)[C@@H]2CCC3(c4cccc(C#N)c4)C[C@@H]3C2)CC1` (single isomer, unassigned), the Ki in [1] was 6.7 nM. In data set [2], the inhibition result is “inactive”.

Consider `CN1CCN(CCCN(c2nc3cc(F)c(Cl)cc3[nH]2)[C@@H]2CC[C@]3(c4ccc(C#N)cc4)C[C@H]23)CC1`, for which the inhibition in vivo at 30 mg/kg was found to be 100% in data set [5] and 81% in data set [8]. Further, the inhibition entry in [2] is “inactive”.

Turning to `CN1CCN(CCCN(c2nc3cc(Cl)c(Cl)cc3[nH]2)[C@@H]2CC[C@]3(c4cccc(C#N)c4)C[C@H]23)CC1`, in data set [1], the Ki worked out at 6.8 nM. In addition, the inhibition in vivo at 30 mg/kg in data set [5] was 97%; in [8], 51%. Further, the inhibition entry in data set [2] is “inactive”. Besides, in data set [10], the Kb came out at 20 nM.

`CN1CCN(CCCN(c2nc3cc(F)c(F)cc3[nH]2)[C@@H]2CCC3(c4cccc(CN5CCCCC5)c4)C[C@@H]3C2)CC1` (single isomer, unassigned): the inhibition entry in data set [2] was “inactive”.

With `CN1CCN(CCCN(c2nc3cc(F)c(Cl)cc3[nH]2)[C@@H]2CC[C@]3(c4cccc(C#N)c4)C[C@H]23)CC1`, the Inhibition in [3] is on record as 5%; in data set [4] it was 21%; in data set [6] it was 19%; in [9], 13%. The inhibition in vivo at 30 mg/kg in data set [5] turned out to be 92%; in [8], 77%. Moreover, the inhibition entry in data set [2] is “inactive”. Moreover, the Kb in [10] is 10 nM.

In the case of `CN1CCN(CCCN(c2nc3cc(F)c(C(F)(F)F)cc3[nH]2)[C@@H]2CC[C@]3(c4ccc(C#N)cc4)C[C@H]23)CC1`, the Ki in [1] was found to be 8.6 nM. The inhibition in vivo at 30 mg/kg in data set [5] was 100%; in data set [8] it was 94%. The Kb in data set [10] is 43 nM. Moreover, in data set [7], the AUC was 2800 ng·h/mL.

On to `CN(C)Cc1cccc(C23CC[C@@H](N(CCCN4CCN(C)CC4)c4nc5cc(Cl)c(Cl)cc5[nH]4)C[C@H]2C3)c1` (single isomer, unassigned), for which the Ki in data set [1] was determined as 4.9 nM. Moreover, the inhibition entry in [2] is “inactive”.

`CN(C)Cc1cccc(C23CC[C@@H](N(CCCN4CCN(C)CC4)c4nc5cc(F)c(F)cc5[nH]4)C[C@H]2C3)c1` (single isomer, unassigned): the affinity in data set [1], expressed as Ki, was 328 nM. Also, the inhibition result in data set [2] was “inactive”.

Regarding `CN1CCN(CCCN(c2nc3cc(Cl)c(F)cc3[nH]2)[C@@H]2CCC3(c4cccc(C#N)c4)C[C@@H]3C2)CC1` (single isomer, unassigned), the Ki in data set [1] turned out to be 6.2 nM. In addition, the inhibition result in data set [2] was “inactive”.

`CN1CCN(CCCN(c2nc3cc(F)c(F)cc3[nH]2)[C@@H]2CCC3(c4cccc(CO)c4)C[C@@H]3C2)CC1` (single isomer, unassigned): the inhibition entry in data set [2] is “inactive”.

In the case of `CN1CCN(CCCN(c2nc3cc(F)c(F)cc3[nH]2)[C@@H]2CCC3(c4cccc(C#N)c4)C[C@@H]3C2)CC1` (single isomer, unassigned), the inhibition in vivo at 30 mg/kg in data set [5] came out at 37%; in data set [8], 17%. Also, the inhibition result in [2] is “inactive”. Moreover, in data set [7], the AUC was determined as 293 ng·h/mL.

As to `CN1CCN(CCCN(c2nc3cc(Cl)c(F)cc3[nH]2)[C@@H]2CC[C@]3(c4cccc(C#N)c4)C[C@H]23)CC1`, the inhibition constant Ki in [1] came to 5.6 nM. For the same molecule, in data set [7], the AUC turned out to be 1920 ng·h/mL.

As for `CN1CCN(CCCN(c2nc3cc(Cl)c(F)cc3[nH]2)[C@@H]2CC[C@]3(c4ccc(C#N)cc4)C[C@H]23)CC1`, in data set [1], the inhibitory constant (Ki) was 4.9 nM.

In data set [1], `CN1CCN(CCCN(c2nc3cc(F)c(F)cc3[nH]2)[C@@H]2CC[C@]3(c4cccc(CN5CC[C@H](O)C5)c4)C[C@@H]3C2)CC1` registered a Ki of 441 nM. Further, the inhibition result in data set [2] was “inactive”.

In data set [1], `CN1CCN(CCCN(c2nc3cc(F)c(F)cc3[nH]2)[C@@H]2CC[C@]3(c4cccc(C#N)c4)C[C@H]23)CC1` displayed a Ki of 20.7 nM. The results for the inhibition in vivo at 30 mg/kg in [5] and in [8] were 75% and 33%, respectively. For the same molecule, the inhibition entry in data set [2] was “inactive”. Moreover, in [7], the AUC worked out at 1490 ng·h/mL.

Regarding `CN1CCN(CCCN(c2nc3cc(F)c(F)cc3[nH]2)[C@@H]2CC[C@]3(c4cccc(CN5CCC[C@H]5CO)c4)C[C@@H]3C2)CC1`, the inhibition result in data set [2] was “inactive”.
